Each block holds one compound with its values, some of them ahead of it.
Experiments:
[1] = system: dorsal skin of Balb/C mice; experiment: Skin epidermis atrophy after 8-day topical treatment of dorsal skin; format: in vivo
From the text: To investigate whether, similarly to Dex, a topical administration of CpdX could result in a skin atrophy, Balb/C mice were shaved on the dorsal skin. Ethanol (vehicle), Dex, CpdX or either one of its two enantiomers CpdX(eA) or CpdX(eB), as well as the deuterated form CpdX-D3 or either one of its two enantiomers CpdX-D3(eA) or CpdX-D3(eB), were topically applied onto the dorsal skin for 8 days.
Upon completion of the treatments, RNA transcripts were extracted from dorsal skin samples and the transcripts of Kindlin-1 and REDD1 genes were analyzed by q-RT-PCR. Histological and morphometric analyses of the dorsal skin were also performed.

[2] = system: mouse tibia cortical bone and femur trabecular bone; experiment: Cortical and trabecular bone formation after three-month treatment (micro-CT, Wnt16 q-RT-PCR); format: in vivo, B6 male mice; conditions: s.c. 1 mg/kg daily, three months
Experimental: (§1) B6 male mice (8-week-old) were daily subjected for three months to either a subcutaneous injection of vehicle (NaCl 0.9%), Dex, CpdX, CpdX(eA), CpdX(eB), CpdX-D3, CpdX-D3(eA) or CpdX-D3(eB) (1 mg/kg body weight, diluted in NaCl 0.9%).
From each animal included in the experiments, one femur and the ipsilateral tibia were dissected and preserved in 70% ethanol for further bone microstructure analysis by micro-CT. The FX Quantum micro-CT scanner (Perkin Elmer) was used to perform measurements at the distal femur and midshaft tibia. All scans were performed with an isotropic voxel size of 10 μm, 160 μA tube current and 90 kV tube voltage.
Morphological 3D measurements were performed using the CTAn software (Bruker). Cortical bone parameters, which were measured in the tibia midshaft, included measures of the bone volume fraction as compared to the total volume, cortical thickness, total area, bone area and marrow area. […] Trabecular bone parameters were measured in the distal metaphysis of the femurs and included bone volume fraction, trabecular thickness, trabecular number and trabecular spacing. […]
The statistical significance as compared to vehicle treatment was calculated through one-way ANOVA test followed by Dunn's multiple comparison test, *p<0.05; **p<0.01; ***p<0.001; ****p<0,0001.

[3] = Body weight and body composition after three-month treatment (pDEXA); format: in vivo, B6 male mice; conditions: s.c. 1 mg/kg daily, 3 months
Experimental: B6 male mice (8-week-old) were daily subjected for three months to a subcutaneous injection of either vehicle (NaCl 0.9%), Dex, CpdX or CpdX-D3 (1 mg/kg body weight, diluted in vehicle. A pDEXA machine was used to determine the lean mass and fat mass. The statistical significance was calculated through Krustal-Walis test followed by a Dunn's multiple comparison test, *p<0.05; **p<0.01; ***p<0.001.

[4] = system: thymus, spleen, adrenal gland and kidney; experiment: Organ weights (thymus, spleen, adrenal gland, kidney) after three-month treatment; format: in vivo, B6 male mice; conditions: s.c. 1 mg/kg daily, three months
Experimental: as §1, with “to” for “to either”, “of either” for “of”, “vehicle). Following these treatments, four organs (thymus, spleen, adrenal gland and kidney) were harvested and weighted.” for “NaCl 0.9%).”

[5] = system: adrenal glands; experiment: Corticosterone synthesis and adrenal gland after three-month treatment; format: in vivo, B6 male mice; conditions: three months
Experimental: B6 male mice (8-week-old) were daily subjected for three months to either a subcutaneous injection of vehicle (NaCl 0.9%), Dex, CpdX, CpdX(eA), CpdX(eB), CpdX-D3, CpdX-D3(eA) or CpdX-D3(eB) (1 mg/kg body weight, diluted in vehicle).
Following this long-term treatment, blood was collected at 10 a.m. and 6 p.m. by retro-orbital puncture in lithium-heparin coated vials, and the plasmatic level of corticosterone was determined. Adrenal glands were harvested and weighted. RNA transcripts were extracted and transcripts of the Cyp11a, Cyp11b1, Cyp11b2 and HSD3β genes were analyzed by q-RT-PCR. Histological analyses of the adrenal glands were also carried out.

[6] = Blood glucose and intraperitoneal glucose tolerance test (IPGTT) after three-month treatment; format: in vivo, B6 male mice; conditions: three months
Experimental: B6 male mice (8-week-old) were daily subjected for three months to a subcutaneous injection of either vehicle (NaCl 0.9%), Dex, CpdX, CpdX(eA), CpdX(eB), CpdX-D3, CpdX-D3(eA) or CpdX-D3(eB) (1 mg/kg body weight, diluted in vehicle). Mice were over-night-fasted. Mouse blood glucose concentration was measured before (To) and during two hours (T120) after glucose i.p. injection ([…]).

[7] = Blood insulin, intraperitoneal insulin tolerance test (IPITT) and liver western blot after three-month treatment; format: in vivo, B6 male mice; conditions: three months
Experimental: B6 male mice (8-week-old) were subjected daily for three months to a subcutaneous injection of either vehicle (NaCl 0.9%), Dex, CpdX, CpdX(eA), CpdX(eB), CpdX-D3, CpdX-D3(eA) or CpdX-D3(eB) (1 mg/kg body weight, diluted in vehicle). After three months, the blood was collected at 10 a.m. by retro-orbital puncture in lithium-heparin coated vials, and the plasmatic level of insulin was determined.
For the intraperitoneal insulin tolerance test (IPITT), mice were fasted for 6 hours before test. The blood glucose concentration was measured both before (To) and during a one-hour period after insulin i.p. injection (0.75 U/kg body weight).
Following this three-month treatment, liver samples were harvested and lysed in the RIPA buffer (20 mM Tris pH 8, 150 mM NaCl, 10% glycerol, 1% NP-40 and 2 mM EDTA). Antibodies from Cell Signaling were used to assess by Western-Blotting the relative level of p-IRS1 (S318), IRS-1, p-AKT (S473) and AKT.

[8] = system: liver; experiment: Fatty liver after three-month treatment (red oil staining, q-RT-PCR, plasma cholesterol and bile acids); format: in vivo, B6 male mice; conditions: three months
Experimental: B6 male mice (8-week-old) were daily subjected for three months to a subcutaneous injection of either vehicle (NaCl 0.9%), Dex, CpdX, CpdX(eA), CpdX(eB), CpdX-D3, CpdX-D3(eA) or CpdX-D3(eB) (1 mg/kg body weight, diluted in vehicle). Following this treatment, blood was collected at 10 a.m. by retro-orbital puncture in lithium-heparin coated vials. The plasmatic levels of total cholesterol and bile acids were determined.
Liver samples were harvested. […] RNA transcripts were extracted from liver samples and the transcripts of fatty acid synthase (FASN) and Stearoyl-CoA desaturase 1 (SCD1) genes were analyzed by q-RT-PCR.

[9] = biological target: T1, GR (Homo sapiens, UniProt P04150); conditions: cited from earlier work
T1 sequence (P04150 1-777): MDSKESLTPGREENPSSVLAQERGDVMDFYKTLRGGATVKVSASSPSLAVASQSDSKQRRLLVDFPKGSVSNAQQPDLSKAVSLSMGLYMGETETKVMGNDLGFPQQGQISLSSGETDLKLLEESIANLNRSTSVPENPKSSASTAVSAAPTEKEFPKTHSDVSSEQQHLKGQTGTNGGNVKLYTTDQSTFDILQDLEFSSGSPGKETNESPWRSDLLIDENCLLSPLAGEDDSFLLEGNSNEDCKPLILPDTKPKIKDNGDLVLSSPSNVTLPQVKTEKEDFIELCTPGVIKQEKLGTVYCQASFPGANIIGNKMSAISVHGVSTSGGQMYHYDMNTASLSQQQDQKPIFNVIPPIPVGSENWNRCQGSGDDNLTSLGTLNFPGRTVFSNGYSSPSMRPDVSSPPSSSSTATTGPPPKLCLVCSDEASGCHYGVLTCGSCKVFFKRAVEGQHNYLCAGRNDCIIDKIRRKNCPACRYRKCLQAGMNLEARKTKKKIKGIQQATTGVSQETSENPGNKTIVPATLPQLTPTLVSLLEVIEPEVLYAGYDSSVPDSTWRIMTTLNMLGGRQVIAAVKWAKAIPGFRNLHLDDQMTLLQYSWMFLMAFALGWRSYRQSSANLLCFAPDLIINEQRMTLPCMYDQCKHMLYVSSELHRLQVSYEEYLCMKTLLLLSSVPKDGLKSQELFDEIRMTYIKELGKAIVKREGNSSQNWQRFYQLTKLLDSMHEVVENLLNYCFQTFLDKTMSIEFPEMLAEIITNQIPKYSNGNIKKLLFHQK

[10] = biological target: T2, GR (Rattus norvegicus, UniProt P06536); conditions: cited from earlier work
T2 sequence (P06536 1-795): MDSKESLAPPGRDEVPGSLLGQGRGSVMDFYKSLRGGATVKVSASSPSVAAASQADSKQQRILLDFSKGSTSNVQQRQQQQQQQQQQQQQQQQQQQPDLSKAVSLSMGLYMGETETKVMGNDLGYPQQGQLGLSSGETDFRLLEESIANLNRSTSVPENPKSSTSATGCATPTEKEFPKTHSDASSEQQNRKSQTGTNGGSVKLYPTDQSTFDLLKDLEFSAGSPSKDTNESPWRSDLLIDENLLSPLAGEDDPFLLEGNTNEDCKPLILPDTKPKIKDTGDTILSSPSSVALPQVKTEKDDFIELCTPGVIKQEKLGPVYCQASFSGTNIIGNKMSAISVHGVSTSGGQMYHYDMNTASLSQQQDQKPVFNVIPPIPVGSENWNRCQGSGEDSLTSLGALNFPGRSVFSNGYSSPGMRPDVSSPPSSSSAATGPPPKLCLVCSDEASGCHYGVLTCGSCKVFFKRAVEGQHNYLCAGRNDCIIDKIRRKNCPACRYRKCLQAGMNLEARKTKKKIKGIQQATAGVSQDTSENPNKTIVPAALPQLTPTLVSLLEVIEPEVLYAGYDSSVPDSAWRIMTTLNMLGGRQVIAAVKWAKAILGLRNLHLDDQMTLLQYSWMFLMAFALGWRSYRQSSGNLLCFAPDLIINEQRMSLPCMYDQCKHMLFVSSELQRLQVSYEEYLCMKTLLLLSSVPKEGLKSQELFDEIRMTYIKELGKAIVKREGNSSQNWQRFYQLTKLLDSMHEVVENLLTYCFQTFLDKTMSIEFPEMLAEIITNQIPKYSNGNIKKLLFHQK

decrease of the epidermal thickness (morphometric analyses) ([1]; eight-day topical treatment): 65%
skin atrophy (histological analysis) ([1]; eight-day topical treatment): severely induces a skin atrophy
transcription of the Kindlin-1 gene (nGRE) in dorsal skin ([1]; topical 1 nmole/cm^2, 8 days): strongly decreased
transcription of the REDD1 gene (+GRE) in dorsal skin ([1]; topical 1 nmole/cm^2, 8 days): significantly increased
decrease of the transcription of the WNT16 gene in tibia [2]: 50%
bone volume as compared to the total volume, tibia cortical bone ([2]; micro-CT): significantly decreased
decrease of the spleen weight [4]: more than 50%
cortex layers, most notably the fasciculata zone, of the adrenal glands (histology) ([5]; s.c. 1 mg/kg daily): drastically decreased
transcripts of Cyp11a, Cyp11b1 and HSD3β genes in adrenal glands (corticosterone synthesis pathway) ([5]; s.c. 1 mg/kg daily, q-RT-PCR): inhibited
glomerulosa zone of the adrenal cortex (histology) [5]: drastically decreased
transcript of the Cyp11b2 gene in adrenal glands (aldosterone synthesis pathway) ([5]; q-RT-PCR): inhibited
plasmatic corticosterone level at 6 p.m. ([5]; vs Vehicle): much lower
plasmatic corticosterone level at 10 a.m. ([5]; vs Vehicle): much lower
lipid deposition in the liver (5% red oil staining) ([8]; s.c. 1 mg/kg daily): marked lipid deposition
blood cholesterol and bile acids' levels ([8]; 10 a.m.): clear increase
transcripts of fatty acid synthase (FASN) and Stearoyl-CoA desaturase 1 (SCD1) in liver ([8]; q-RT-PCR): increase
Compound: C[C@@H]1C[C@H]2[C@@H]3CCC4=CC(=O)C=C[C@]4(C)[C@@]3(F)[C@@H](O)C[C@]2(C)[C@@]1(O)C(=O)CO [Dex, Dexamethasone, reference compound]
body weight, change from baseline [3]: net loss
fat mass / fat percentage, change from baseline ([3]; pDEXA): disproportional increase
lean mass / lean percentage, change from baseline ([3]; pDEXA): decrease
thymus apoptosis (thymus weight) [4]: no thymus was found in sixteen out of nineteen mice
blood glucose level after over-night fasting ([6]; s.c. 1 mg/kg daily): significantly higher
blood glucose level during two-hour IPGTT ([6]; glucose i.p. injection): significant higher
blood insulin level (hyperinsulinemia) ([7]; s.c. 1 mg/kg daily, 10 a.m.): hyperinsulinemia
phosphorylated insulin receptor substrate 1 (p-IRS1 S318) in liver extracts (western blot) [7]: decrease
phosphorylation of protein kinase B (p-AKT S473) in liver extracts (western blot) [7]: decreased
response to insulin in IPITT ([7]; insulin i.p. 0.75 U/kg): significant impaired response to insulin

Compound: C[C@@H]1C[C@H]2[C@@H]3CCC4=CC(=O)C=C[C@]4(C)[C@@]3(F)[C@@H](O)C[C@]2(C)[C@H]1C(=O)CC#N [RU24858]
dissociated profile (transrepression vs transactivation) in vitro [9]: exhibit such an expected dissociated profile
dissociation upon administration in vivo [10]: failed to confirm this dissociation

From patent US11179363B2, “Non-steroidal selective glucocorticoid receptor agonistic modulators (SEGRAMs) and uses thereof” (ASSOCIATION POUR LA RECHERCHE À L'IGBMC (ARI), priority 2017, dated 2021)
